Measured values published in patent US10323017B2, “Antioxidants and methods to maximize performance” (University of Ottawa, priority 2015, dated 2019).

Tests used:
[1] = pKa measurement by titration of hydrochloride salts with NaOH; assay type: physicochemical; conditions: 4:1 (v:v) CH3CN:H2O solution of the hydrochloride salt; in 4:1 CH3CN:H2O; read-out: pKa of the conjugate acid
Method: Solutions of the hydrochloride salts of diarylamines 1-7 (1 mM) were made up in 4:1 CH3CN:H2O (3.0 mL) and the pH was measured using an Accument Electrode microbe referenced to Ag/Ag^+ as a function of added volumes of NaOH (10 mM). […] The titration curves for the diarylamines are shown in FIGS. 6A and 6B (averages of triplicate experiments), and the pKas reported in the manuscript correspond to the pH when 0.5 molar equivalents of NaOH were added to the solution.

[2] = Hexadecane autoxidation at 160° C. (hydroperoxide formation), stirred flow reactor, initiated by tetralin hydroperoxide; conditions: for effect of added palmitic acid on inhibitory activity: 1 mM palmitic acid; for effect of added base 2,4,6-tri-tert-butylpyridine on inhibition of autoxidation: TTBP 1 mM vs. no base
Method: To evaluate the effect of an added sacrificial base on the high-temperature radical-trapping activity of antioxidants, autoxidations of n-hexadecane were carried out at 160° C. in a stirred flow reactor in the absence of or presence of a base, where a constant positive pressure of O2 was used to stir the medium and prevent mass transfer from becoming rate limiting (Igarashi, J., et al., J. Am. Chem. Soc. 1992, 114, 7727; Jensen, R.; et al., J. Am. Chem. Soc. 1979, 101, 7574). Tetralin hydroperoxide (10 mM) was used as a radical initiator since inhibited autoxidations in the absence of an initiator were very slow. At regular intervals, aliquots of the reaction mixture were removed, cooled and the concentration of hydroperoxide products determined by reaction with a developed fluorogenic phosphine (Hanthorn, J. J., et al., Chem. Commun. 2012, 48, 10141). Autoxidations were followed for the first 2% of the reaction, based on hydroperoxide formation, since beyond ca. 3% conversion, the hydroperoxide yield begins to decrease and highly complex mixtures of ketones, alcohols, carboxylic acids and esters arise.
n-Hexadecane (100 mL) was thoroughly degassed with argon and heated to 160° C. while argon was continuously bubbled through the liquid. […] For those experiment where acid or base was present, as noted in the figure captions, they were also added at this point. Aliquots (0.5 mL) were removed every 5 minutes, and allowed to cool to room temperature for analysis. Four duplicates (30 μL) of each sample were loaded into separate wells of a 96-well microplate and the automated reagent dispenser of the microplate reader was used to dilute each sample with tert-amyl alcohol (200 μL) and a solution of fluorogenic phosphine dye solution (20 μL of a 250 μM stock solution in acetonitrile) immediately before reading. The plate was stirred for 8 seconds, allowed to rest for 2 more seconds, and the fluorescence of each well was measured every second for 60 seconds (absorption at 340; emission at 425). The concentration of hydroperoxide was determined from the rate of phosphine oxidation using the rate constant for the reaction of the dye with secondary hydroperoxides in tert-amyl alcohol (k=1.2 M^−1s^−1) assuming pseudo-first-order kinetics. See sample data from an uninhibited autoxidation and one inhibited with diarylamine 4 alongside analogous experiments in the absence of the initiator tetralin hydroperoxide, or O2 (FIGS. 2C-E). Further results are presented in FIGS. 7 to 17 for hexadecane autoxidations and FIGS. 18 and 19 for tetralin autooxidations in the presence and absence of antioxidants, and at varying pH. FIGS. 14-17 correspond to hexadecane autoxidations carried out for diarylamine 4 in the presence of four different bases. FIGS. 7-13 correspond to hexadecane autoxidations carried out for compounds 1-7 and 20 in the presence and absence of a base, specifically, 2,4,6-tri-tert-butylpyridine. FIG. 5A corresponds to hexadecane autoxidations carried out for diarylamine 4 and 7 in the presence and absence of palmitic acid.

[3] = Diarylamine stability to oxygen at 160° C. in n-hexadecane; assay type: physicochemical
Method: n-Hexadecane (100 mL) was thoroughly degassed with argon and then heated to 160° C. while argon was continuously bubbled through the liquid. Once the temperature stabilized, 2.5 mmol of diarylamines 1-7 were added to the solution and the flow of argon was replaced with 02. Aliquots (100 μL) were removed every 10 minutes, and added to 900 μL of a 2.2 mM solution of benzyl alcohol (internal standard) in 2% isopropanol/hexanes (HPLC grade). Samples were analysed using a Waters 2695 Alliance HPLC at a flow rate of 2.1 mL min^−1 (8.0% PrOH/hexanes) on a Sunfire Silica column (5 μm, 4.6×250 mm) and determined by their UV absorbance.

[4] = Cyclic voltammetry (standard potential); assay type: physicochemical; conditions: 1 mM in CH3CN containing 0.1 M Bu4NPF6
Method: A standard potential for diarylamine 5 was measured from its cyclic voltammagram obtained using a BASi potentiostat (available from BASi Analytical Instruments, West La Fayette, Ind., USA) with a glassy carbon working electrode, a platinum counter electrode and a Ag/AgNO3 reference electrode. The diarylamine was dissolved in degassed acetonitrile containing 0.1 M tetrabutylammonium hexafluorophosphate as supporting electrolyte and the current recorded in the range of 0-1 V at a scan rate of 200 mV/s. Standard potentials of the other compounds are reported in previous publications. A cyclic voltammogram of diarylamine 5 (1 mM in CH3CN containing 0.1 M Bu4NPF6) vs. Ag/Ag^+ gave E^0=0.84 V vs. NHE.

[5] = Peroxyl radical clock kinetics; conditions: double reciprocal plot
Method: Peroxyl radical clocking experiments (to determine the inhibition rate constant kinh) for compound 5 were carried out according to our previously published reports (see Hanthorn, J., et al. J. Org. Chem. 2012, 77, 6895). Inhibition rate constants of the other compounds are as reported previously. A double reciprocal plot was used to obtain km=2.4×10^7 M^−1s^−1 for compound 5.

[6] = Tetralin autoxidation at 70° C. initiated by azobis(α-tetralin); conditions: hexanoic acid 50 μM, antioxidant 2 μM
Method: Fresh tetralin was prepared by passing it through a column of silica. Tetralin (1.0 mL) was added to a glass vial, followed by chlorobenzene (1.0 mL). A magnetic Teflon-coated stir bar was added, and the vial was capped with a rubber septum. The vial was then placed in a heating block at 70° C. for 5 minutes. Antioxidant (4, 7) (0.002 mmol) were added. For those experiment where acid was present, as noted in the figure captions, hexanoic acid (0.050 mmol) was also added at this point. Azobis(α-tetralin) (0.1 mmol) was added as the initiator. The solution was stirred for 30 s and the first sample was taken. 100 μL samples were taken at regular intervals and added to 900 μL of a solution containing 2.2 mM benzyl alcohol, 10 mM butylated-hydroxytoluene, and 10 mM triphenylphosphine in 2% isopropanol/hexanes (HPLC grade). Samples were analysed using a Waters 2695 Alliance HPLC (2.0% iPrOH/hexanes, 1.6 ml min^−1; 10 min; Sunfire Silica column (5 μm, 4.6×250 mm)) and analysed by UV absorbance.

[7] = TTBP 1 mM, 40 μM antioxidant, 160° C.

Row | pKa [1] | Structure (SMILES) | inhibition of autoxidation in the presence of added base, compared with 7 [2, 7] | effect of added palmitic acid on inhibitory activity ([2]; 40 μM antioxidant, 160° C.) | effect of added base 2,4,6-tri-tert-butylpyridine on inhibition of autoxidation ([2]; 40 μM antioxidant, 160° C.) | other results
1 | 8.2 ± 0.2 | CCCCCCN(CCCCCC)c1ncc(Nc2ccccc2)cn1 [Compound 4, N^2,N^2-Dihexyl-N^5-phenylpyrimidine-2,5-diamine] | particularly good | disrupt the inhibitory activity | unprecedented inhibited period | difference in Δt2% (delay to reach [ROOH]=2%) relative to 7 ([2]; 40 μM antioxidant, TTBP 1 mM, 160° C.): 12.5 fold; effect of other bases on activity ([2]; cesium carbonate, potassium carbonate, or Primene 81-R (1 mM), 160° C.): rescued
2 | 8.3 ± 0.1 | CCCCCCc1ncc(Nc2cnc(N(CCCC)CCCC)nc2)cn1 [Compound 5, N^2,N^2-Dibutyl-N^5-(2-hexylpyrimidin-5-yl)pyrimidine-2,5-diamine] | particularly good | – | – | standard potential E^0 [4]: 0.84 V vs. NHE; inhibition rate constant kinh (printed km) [5]: 2.4e+07 M⁻¹ s⁻¹
3 | 4.6 ± 0.3 | c1ccc(Nc2ccccc2)cc1 [Compound 7, reference compound] | – | unchanged | no effect | effect of added acid on antioxidant activity [6]: does not affect the activity; effect of added base 2,4,6-tri-tert-butylpyridine on inhibition of autoxidation ([2]; 40 μM antioxidant, 160° C., listed as diphenylamine): did not impact the reactivity

The remaining lines, values behind:

Row | Structure (SMILES) | pKa [1] | inhibition of autoxidation in the presence of added base, compared with 7 [2, 7] | effect of added palmitic acid on inhibitory activity ([2]; 40 μM antioxidant, 160° C.) | effect of added base 2,4,6-tri-tert-butylpyridine on inhibition of autoxidation ([2]; 40 μM antioxidant, 160° C.) | other results
4 | CCCCN(CCCC)c1ncc(Nc2cnc(N(CCCC)CCCC)nc2)cn1 [Compound 2, N^2,N^2-Dibutyl-N^5-(2-(dibutylamino)pyrimidin-5-yl)pyrimidine-2,5-diamine] | 8.8 ± 0.1 | particularly good | – | – | –
5 | CCCCCCN(CCCCCC)c1ccc(Nc2ccccc2)cn1 [Compound 3, N^2,N^2-Dihexyl-N^5-phenylpyridine-2,5-diamine] | 8.4 ± 0.1 | superior to 7 | – | – | stability to O2 [3]: relatively unstable
6 | CCCCCCCCN(CCCCCCCC)c1ncc(Nc2ccc(C(C)(C)C)cc2)cn1 [Compound 20, N^5-(4-(tert-butyl)phenyl)-N^2,N^2-dioctylpyrimidine-2,5-diamine] | – | – | – | – | stability and reactivity compared with compound 4 ([2]; 40 μM, with and without TTBP 1 mM, 160° C. (FIG. 9)): slightly increased stability and reactivity
